For 11 compounds, activation, EC50 and Emax results are on record in patent US8119624B2, “Fused phenyl amido heterocyclic compounds” (Pfizer Inc., priority 2006, dated 2012).

Molecules are shown by their SMILES. pEC50: −log10 of the molar value.

This experiment has as its target T1, Full-length glucokinase (beta cell isoform) (Homo sapiens, UniProt P35557).
T1 construct: Full-length glucokinase (beta cell isoform) was His-tagged at N-terminus; His tag (N); made in house
T1 sequence (P35557 1-465): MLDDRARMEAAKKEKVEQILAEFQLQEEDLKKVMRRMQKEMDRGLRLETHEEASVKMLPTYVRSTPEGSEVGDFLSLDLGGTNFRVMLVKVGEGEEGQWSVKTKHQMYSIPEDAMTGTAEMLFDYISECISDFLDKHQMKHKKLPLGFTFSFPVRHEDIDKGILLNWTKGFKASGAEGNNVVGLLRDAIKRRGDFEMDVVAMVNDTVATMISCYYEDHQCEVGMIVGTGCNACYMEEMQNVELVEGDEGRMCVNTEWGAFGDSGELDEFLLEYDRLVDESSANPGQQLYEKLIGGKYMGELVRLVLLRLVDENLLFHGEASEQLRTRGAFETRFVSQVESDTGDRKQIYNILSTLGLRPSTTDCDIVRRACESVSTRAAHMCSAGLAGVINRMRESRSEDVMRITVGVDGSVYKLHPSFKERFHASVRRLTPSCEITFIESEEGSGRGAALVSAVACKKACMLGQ
As to the kind of experiment: Glucokinase biochemical assay (PK/LDH-coupled, NADH depletion at 340 nm): % activation, EC50, % max activation. Particulars: 5 mM glucose; for activation at 10 µM: 10 uM compound, % Activation=(Va/Vo−1)×100, read-out: % Activation at 10 uM; for pEC50: GK activation, read-out: EC50; for Emax: fitted maximum activation, read-out: % Max Activation. In short, it runs like this: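 N-terminally His-tagged full-length human beta-cell glucokinase, room temperature, 5 mM glucose, 1 mM ATP, PK/LDH-coupled with 0.7 mM NADH, 1% DMSO final. Initial velocity from the 200–900 s slope of A340 decline. % activation = (Va/Vo−1)×100, measured across compound concentrations.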

What is called pEC50 is the negative decadic logarithm of the EC50, by convention in mol/L. With `Cc1cc2c(Oc3ccc(S(C)(=O)=O)cc3)cc(C(=O)Nc3ccc(F)cn3)cc2o1` [Example 256, N-(5-Fluoropyridin-2-yl)-2-methyl-4-(4-(methylsulfonyl)-phenoxy)benzofuran-6-carboxamide], the activation at 10 µM turned out to be 89.2%, the pEC50 is 5.35 and the Emax was 126%.

Turning to `Cc1cc2c(Oc3ccc(S(C)(=O)=O)cc3)cc(C(=O)Nc3ccccn3)cc2o1` [Example 257, 2-Methyl-4-(4-(methylsulfonyl)phenoxy)-N-(pyridin-2-yl)-benzofuran-6-carboxamide], the activation at 10 µM worked out at 111%, the negative-log EC50 (pEC50) was 5.85 and the Emax came out at 119%.

On to `Cc1cc2c(Oc3ccc(S(C)(=O)=O)cc3)cc(C(=O)Nc3ccon3)cc2o1` [Example 258, N-(Isoxazol-3-yl)-2-methyl-4-(4-(methylsulfonyl)phenoxy)-benzofuran-6-carboxamide], for which the activation at 10 µM was determined as 99.7%, the negative logarithm of the EC50 (pEC50) was 5.24 and the Emax was determined as 142%.

Turning to `COc1ccnc(NC(=O)c2cc(Oc3ccc(S(C)(=O)=O)cc3)c3cc(C)oc3c2)c1` [Example 259, N-(4-Methoxypyridin-2-yl)-2-methyl-4-(4-(methylsulfonyl)-phenoxy)-benzofuran-6-carboxamide], the activation at 10 µM is 63.6%, the pEC50 is 6.00 and the Emax came out at 60%.

For `Cc1cc2c(Oc3ccc(S(C)(=O)=O)cc3)cc(C(=O)Nc3ccc(Cl)cn3)cc2o1` [Example 260, N-(5-chloropyridin-2-yl)-2-methyl-4-(4-(methylsulfonyl)-phenoxy)benzofuran-6-carboxamide], the activation at 10 µM turned out to be 53.1%, the pEC50 is 5.54 and the Emax was found to be 69%.

On to `Cc1cc2c(Oc3ccc(S(C)(=O)=O)cc3)cc(C(=O)Nc3ccc(C#N)cn3)cc2o1` [Example 261, N-(5-cyanopyridin-2-yl)-2-methyl-4-(4-(methylsulfonyl)-phenoxy)benzofuran-6-carboxamide], for which the activation at 10 µM stood at 58.8%, the pEC50 is 5.10 and the Emax was 81%.

Turning to `Cc1cc2c(Oc3ccc(S(C)(=O)=O)cc3)cc(C(=O)Nc3cnc(N(C)C)cn3)cc2o1` [Example 262, N-(5-(Dimethylamino)pyrazin-2-yl)-2-methyl-4-(4-(methylsulfonyl)-phenoxy)-benzofuran-6-carboxamide], the activation at 10 µM amounted to 151%, the pEC50 was 6.11 and the Emax was determined as 137%.

Regarding `COc1cnc(NC(=O)c2cc(Oc3ccc(S(C)(=O)=O)cc3)c3cc(C)oc3c2)cn1` [Example 263, N-(5-methoxypyrazin-2-yl)-2-methyl-4-(4-(methylsulfonyl)-phenoxy)-benzofuran-6-carboxamide], the activation at 10 µM was found to be 157%, the negative-log EC50 (pEC50) is 6.08 and the Emax worked out at 146%.

Consider `COC(=O)c1ccc(NC(=O)c2cc(Oc3ccc(S(C)(=O)=O)cc3)c3cc(C)oc3c2)nc1` [Example 264, Methyl 6-(2-methyl-4-(4-(methylsulfonyl)phenoxy)benzofuran-6-carboxamido)nicotinate], for which the activation at 10 µM amounted to 80.5%, the negative logarithm of the EC50 (pEC50) is 5.89 and the Emax was determined as 79%.

On to `CCc1ccc(NC(=O)c2cc(Oc3ccc(S(C)(=O)=O)cc3)c3cc(C)oc3c2)nc1` [Example 265, N-(5-Ethylpyridin-2-yl)-2-methyl-4-(4-(methylsulfonyl)-phenoxy)benzofuran-6-carboxamide], for which the activation at 10 µM came to 94.2%, the pEC50 was 5.77 and the Emax came to 74%.

Consider `Cc1cc2c(Oc3ccc(S(C)(=O)=O)cc3)cc(C(=O)Nc3ccc(CO)cn3)cc2o1` [Example 266, N-(5-(Hydroxymethyl)pyridin-2-yl)-2-methyl-4-(4-(methylsulfonyl)-phenoxy)-benzofuran-6-carboxamide], for which the activation at 10 µM is 81.4%, the pEC50 is 6.00 and the Emax was determined as 91%.
